Source: patent US4786755A, “Diphenic acid monoamides” (Warner-Lambert Company, priority 1986, dated 1988)

Target: T1, leukotriene receptor (Cavia porcellus, UniProt Q2NNR5)
T1 construct: 20 mg original tissue wet weight of guinea pig lung membranes; tissue Kuiper Rabbit Farm, Gary, IN (animals); host or cells: guinea pig lung, crude membranes
T1 sequence (Q2NNR5 1-340): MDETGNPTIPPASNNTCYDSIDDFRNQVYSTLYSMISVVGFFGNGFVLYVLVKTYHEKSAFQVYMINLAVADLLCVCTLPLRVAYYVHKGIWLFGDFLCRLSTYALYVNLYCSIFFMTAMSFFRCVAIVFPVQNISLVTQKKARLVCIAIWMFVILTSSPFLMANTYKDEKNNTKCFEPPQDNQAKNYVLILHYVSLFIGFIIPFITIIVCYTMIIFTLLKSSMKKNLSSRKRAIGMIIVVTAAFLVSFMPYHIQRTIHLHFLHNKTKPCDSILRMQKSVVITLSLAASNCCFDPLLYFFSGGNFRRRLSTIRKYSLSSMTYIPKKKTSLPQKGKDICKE
Assay: Binding of ^3 H-Leukotriene D4 to Guinea Pig Lung Membranes (RBL)
Settings: ^3 H-LTD4, guinea pig lung membranes; read-out: IC50 RBL1
Method: Additionally, the activity, of the compounds having the Formula I of the present invention is determined by the well known leukotriene receptor binding assay that is described by R. F. Bruns, W. J. Thomsen and T. A. Pugsley in Life Sciences, 33, 645 (1983) or the Herxheimer in vivo antiallergy test described in H. Herxheimer, J. Physiol. (London), Vol. 177, p. 251 (1952).
Binding of ^3 H-Leukotriene D4 to Guinea Pig Lung Membranes (RBL)
[14,15-^3 H]leukotriene D4 (^3 H-LTD4) (25 Ci/mmol and 40 Ci/mmol) is purchased from New England Nuclear. Unlabeled LTC4 is a gift of Ono Pharmaceuticals (Japan). LTC4, LTD4, and LTE4 are purchased as methyl esters from Paesel GmbH (Frankfurt, W. Germany). Concentrations of the Paesel leukotrienes are calculated from their absorbance at 280 nm. Leukotriene esters are saponified overnight under N2 in 3.3% potassium carbonate at room temperature. Tritiated leukotrienes are stored as received from New England Nuclear at -20° C. Ono LTC4 (5 μg/ml is stored at -60° C. in phosphate buffer pH 6.8. Saponified Paesel leukotrienes are stored at -60° C. in 3.3% potassium carbonate (pH 9.0-9.5). Aliquots of leukotrienes are taken from stock solutions immediately after thawing, after which the stock solutions are immediately refrozen. 2-Amino-2-(hydroxymethyl)-1,3-propanediol (Tris) is Sigma pH 7.7 pre-set crystals, and dimethylsulfoxide is Aldrich Gold Label.
Preparation of crude lung membranes
Two pairs of lungs (1.3 g) from freshly sacrificed 300 g male guinea pigs (older animals gave substantially lower binding) from Kuiper Rabbit Farm, Gary, IN are disrupted with a Polytron PT 10 (setting 4) for 30 seconds in 20 ml ice-cold 50 mM Tris adjusted with HCl to pH 7.7 at 25° C. (Tris buffer), filtered through a single layer of gauze to remove connective tissue, and centrifuged at 50,000 xg for ten min. The pellet is resuspended by homogenization with a Polytron in 20 ml Tris buffer, centrifuged at 50,000 xg for ten min., resuspended, incubated at 37° C. for 30 minutes, and centrifuged again. The final pellet is resuspended in Tris buffer and either used fresh or stored at -70° C.
All incubations are in triplicate for 60 minutes at 25° C. in 12×75 mm polystyrene tubes containing 1 ml Tris buffer with 20 mg original tissue wet weight of guinea pig lung membranes, 0.2 nM ^3 H-LTD4 (6,000-11,000 cpm), 10 mM MgCl2, and 1% dimethylsulfoxide. Leukotrienes are diluted in Tris buffer. All other test compounds are dissolved at 10 mM in dimethylsulfoxide on the same day as the experiment, and diluted in dimethylsulfoxide to 100× the final incubation concentration. Control incubations receive an equal volume (10 μl) of dimethylsulfoxide; the resulting concentration of dimethylsulfoxide had no effect on binding. ^3 H-LTD4 is diluted to 2 nM in Tris buffer. The membrane suspension (20 mg/0.89 ml) contains sufficient MgCl2 to give 10 mM final concentration in the incubation. […] All additions are performed at 0° C. Immediately after the last addition, the incubation is initiated by agitating the rack of tubes on a vortex mixer and warming to 25° C. in a water bath. Tubes are vortexed at least once more during the incubation to ensure that the membranes remained suspended. Incubations are terminated after 60 minutes by filtering under reduced pressure through 25 mm Whatman GF/B filters followed by rapid washing three times with 4 ml of ice-cold Tris buffer. Filters are added to scintillation vials with 8 ml Formula 947 (New England Nuclear), left overnight, shaken, and the radioactivity counted in a scintillation counter (efficiency 40%). Nonspecific binding, defined as binding of ^3 H-LTD4 in the presence of 100 nM LTC4, is 300-500 cpm for all lots of ^3 H-LTD4. Binding to the filters in the absence of tissue is about 100 cpm, and is not affected by unlabeled LTC4. Specific binding, defined as total binding minus nonspecific binding, varied considerably from lot to lot of ^3 H-LTD4. […]

SMILES | IC50 [µM]
O=C(C=Cc1ccc(Cl)c(Cl)c1)c1ccc(NC(=O)c2ccccc2-c2ccccc2C(=O)O)cc1 [Example 46, [1,1'-Biphenyl]-2-carboxylic acid, 2'-[[[4-[1-oxo-3-(3,4-dichlorophenyl)-2-propenyl]phenyl]amino]-carbonyl]-] | 5.7
O=C(O)c1ccccc1-c1ccccc1C(=O)Nc1cccc(CCCc2ccc(Cl)c(Cl)c2)c1 [Example 6, [1,1'-Biphenyl]-2-carboxylic acid, 2'-[[[3-[3-(3,4-dichlorophenyl)propyl]phenyl]amino]carbonyl]] | 1
O=C(CCc1ccc(Cl)cc1)c1ccc(NC(=O)c2ccccc2-c2ccccc2C(=O)O)cc1 [Example 49, [1,1'-Biphenyl]-2-carboxylic acid, 2'-[[[4-[1-oxo-3-(4-chlorophenyl)propyl]phenyl]amino]carbonyl]-] | 7.5
CN(C)c1ccc(CCC(=O)c2ccc(NC(=O)c3ccccc3-c3ccccc3C(=O)O)cc2)cc1 [Example 48, [1,1'-Biphenyl]-2-carboxylic acid, 2'-[[[4-[1-oxo-3-(4-dimethylaminophenyl)propyl]phenyl]amino]carbonyl]-] | 53.1
O=C(O)c1ccccc1-c1ccccc1C(=O)Nc1ccc(CCc2cc(C(F)(F)F)cc(C(F)(F)F)c2)cc1 [Example 13, [1,1'-Biphenyl]-2-carboxylic acid, 2'-[[[4-[2-[3,5-bis(trifluoromethyl)phenyl]ethyl]phenyl]amino]carbonyl]-] | 5.4
O=C(C=Cc1ccc(Br)cc1)c1ccc(NC(=O)c2ccccc2-c2ccccc2C(=O)O)cc1 [Example 47, [1,1'-Biphenyl]-2-carboxylic acid, 2'-[[[4-[1-oxo-3-(4-bromophenyl)-2-propenyl]phenyl]amino]carbonyl]-] | 27.1
O=C(O)c1ccccc1-c1ccccc1C(=O)Nc1ccc(OCCCCc2ccccc2)cc1 [Example 44, [1,1'-Biphenyl]-2-carboxylic acid, 2'-[[[4-(4-phenylbutyloxy)phenyl]amino]carbonyl]-] | 1.2
O=C(O)c1ccccc1-c1ccccc1C(=O)Nc1cccc(CCCCc2ccc(Cl)c(Cl)c2)c1 [Example 50, [1,1'-Biphenyl]-2-carboxylic acid, 2'-[[[3-[4-(3,4-dichlorophenyl)butyl]phenyl]amino]carbonyl]-] | 0.7
CCCCCCCCCCc1ccc(NC(=O)c2ccccc2-c2ccccc2C(=O)O)cc1 [Example 20] | 11.2
O=C(CCc1ccc(Br)cc1)c1ccc(NC(=O)c2ccccc2-c2ccccc2C(=O)O)cc1 [Example 51, [1,1'-Biphenyl]-2-carboxylic acid, 2'-[[[4-[1-oxo-3-(4-bromophenyl)propyl]phenyl]amino]-carbonyl]-] | 7.2

More lines, now with the values ahead:

IC50 [µM] | SMILES
7.3 | O=C(O)c1ccccc1-c1ccccc1C(=O)Nc1ccc(CCCCCc2ccc(Cl)c(Cl)c2)cc1 [Example 58, [1,1'-Biphenyl]-2-carboxylic acid, 2'-[[[4-[5-(3,4-dichlorophenyl]pentyl]phenyl]amino]carbonyl]-]
13.2 | O=C(O)c1ccccc1-c1ccccc1C(=O)Nc1ccc(CCc2ccc(Oc3ccccc3)cc2)cc1 [Example 52]
44.9 | CC(CC(=O)CCc1ccc(NC(=O)c2ccccc2-c2ccccc2C(=O)O)cc1)c1ccccc1 (centres unmarked) [Example 57, [1,1'-Biphenyl]-2-carboxylic acid, 2'-[[[4-[5-phenyl-3-oxohexyl]phenyl]amino]carbonyl]-]
2.4 | O=C(O)c1ccccc1-c1ccccc1C(=O)Nc1cccc(CCc2ccc(Oc3ccccc3)cc2)c1 [Example 53]
3.8 | O=C(CCCCc1ccc(Cl)c(Cl)c1)c1ccc(NC(=O)c2ccccc2-c2ccccc2C(=O)O)cc1 [Example 56, [1,1'-Biphenyl]-2-carboxylic acid, 2'-[[[4-[5-(3,4-dichlorophenyl)-1-oxopentyl]phenyl]amino]-carbonyl]-]
13.1 | O=C(O)c1ccccc1-c1ccccc1C(=O)Nc1ccc(CCCc2ccc(Oc3ccccc3)cc2)cc1 [Example 55, [1,1'-Biphenyl]-2-carboxylic acid, 2'-[[[4-[3-(4-phenoxyphenyl)propyl]phenyl]amino]carbonyl]-]
17.1 | O=C(CCc1ccc(NC(=O)c2ccccc2-c2ccccc2C(=O)O)cc1)c1ccc(Oc2ccccc2)cc1 [Example 54, [1,1'-Biphenyl]-2-carboxylic acid, 2'-[[[4-[3-oxo-3-(4-phenoxyphenyl)propyl]phenyl]amino]carbonyl]-]
